The record followed here is PMC8518794 (2021).

Broadly, the ΔTm is the change in melting temperature against a reference sample.

The test system of assay [1] is pApU (poly rA–poly rU; polyAU) (RNA, polymer) A/U. The assay can be described thus: UV thermal denaturation. The conditions noted are these: Na+ (sodium cacodylate); pH 7; r[compound]/[polynucleotide] = 0.3; error ±0.5 °C; per base.
The test system is the same in assay [2]. Kind of assay: fluorimetric titration, Scatchard / McGhee-von Hippel. The note with it: Na+ (sodium cacodylate); pH 7; sodium cacodylate buffer; r fixed at 0.25; compound 1×10^-7 M; per base.
The test system is the same in assay [3]. The assay can be described thus: fluorimetric titration. The note with it: Na+ (sodium cacodylate); pH 7; compound 1×10^-7 M; negligible emission change.

`Cc1cc(C)c(B(c2c(C)cc(-c3ccc(-c4ccc(-c5cc(C)c(B(c6c(C)cc(C)cc6C)c6c(C)cc([N+](C)(C)C)cc6C)c(C)c5)s4)s3)cc2C)c2c(C)cc([N+](C)(C)C)cc2C)c(C)c1`: the ΔTm in assay [1] was 13.0 °C. Moreover, the “log Ks” value in assay [2] worked out at 7.8.
Consider `Cc1cc(C)c(B(c2c(C)cc(-c3ccc(-c4ccc(-c5cc(C)c(B(c6c(C)cc([N+](C)(C)C)cc6C)c6c(C)cc([N+](C)(C)C)cc6C)c(C)c5)s4)s3)cc2C)c2c(C)cc([N+](C)(C)C)cc2C)c(C)c1`, for which, in assay [1], the ΔTm worked out at 5.5 °C. For the same molecule, the “log Ks” value in assay [2] worked out at 7.5.
Regarding `Cc1cc(C)c(B(c2c(C)cc(C)cc2C)c2c(C)cc(-c3ccc(-c4ccc(-c5cc(C)c(B(c6c(C)cc(C)cc6C)c6c(C)cc([N+](C)(C)C)cc6C)c(C)c5)s4)s3)cc2C)c(C)c1`, in assay [3], the binding result was “no”. Besides, the ΔTm in assay [1] is 0 °C.
As for `Cc1cc(C)c(B(c2c(C)cc(C)cc2C)c2c(C)cc(-c3ccc(-c4ccc(-c5cc(C)c(B(c6c(C)cc([N+](C)(C)C)cc6C)c6c(C)cc([N+](C)(C)C)cc6C)c(C)c5)s4)s3)cc2C)c(C)c1`, in assay [1], the ΔTm turned out to be 11.1 °C. Also, in assay [2], the “log Ks” value worked out at 7.0.
